{"source": "paper PMC10058022", "about": "“Physico-Chemical Study of Mn(II), Co(II), Cu(II), Cr(III), and Pd(II) Complexes with Schiff-Base and Aminopyrimidyl Derivatives and Anti-Cancer, Antioxidant, Antimicrobial Applications” (Molecules, 2023)", "key": {"[1]": {"assay": "DPPH free radical scavenging assay", "conditions": "DPPH 0.004% w/v in methanol, absorbance 515 nm, 16 min, three replicates", "method": "The antioxidant activity of the extract was determined at the Regional Center for Mycology and Biotechnology (RCMB) at Al-Azhar University by the DPPH free radical scavenging assay in triplicate, and average values were considered.\nFreshly prepared (0.004% w/v) methanol solution of 2,2-diphenyl-1-picrylhydrazyl (DPPH) radical was prepared and stored at 10 °C in the dark. A methanol solution of the test compound was prepared. About 40 uL aliquot of the methanol solution was added to 3 mL of DPPH solution. Absorbance measurements were recorded immediately with a UV-visible spectrophotometer (Milton Roy, Spectronic 1201). The decrease in absorbance at 515 nm was determined continuously, with data being recorded at 1 min intervals until the absorbance stabilized (16 min). The absorbance of the DPPH radical without antioxidant (control) and the reference compound ascorbic acid were also measured. All the determinations were performed in three replicates and averaged. The percentage inhibition (PI) of the DPPH radical was calculated according to the formula:PI = [{(AC − AT)/AC} × 100] where AC = absorbance of the control at t = 0 min and AT = absorbance of the sample + DPPH at t = 16 min. A 50% inhibitory concentration (IC50) or the concentration required for 50% DPPH radical scavenging activity was calculated."}, "Candida albicans": {"test_system": "Candida albicans", "assay": "Antifungal screening, diffusion agar technique", "type": "cell-based", "conditions": "ATCC10231; Candida albicans (ATCC 10231); well 6.0 mm, 100 μL tested; three replicates; ketoconazole 100 μg/mL", "method": "(§1) The complexes were tested in vitro using a diffusion agar technique; well diameter: 6.0 mm (100 μL tested) on four fungi (Aspergillus fumigatus (RCMB 002008), Candida albicans (RCMB 005003 (1) ATCC 10231), Cryptococcus neoformas (RCMB 0049001) and Syncephalastrum racemosum (RCMB 016001 (1)). The positive control was a fungicide (ketoconazole, 100 μg/mL) as well as four bacteria, two Gram-positive strains (Staphylococcus aureus (ATCC 25923) and Bacillus subtilis (RCMB 015 (1) NRRL B-543)), and two Gram-negative strains (Escherichia coli (ATCC 25922) and Proteus Vulgaris (RCMB 004 (1) ATCC 13315)). The positive control was Streptococcus (gentamycin, 4 μg/mL). The inhibitory activity of a compound against an organism is indicated by a clear area around the disc."}, "Cryptococcus neoformas": {"test_system": "Cryptococcus neoformas", "assay": "Antifungal screening, diffusion agar technique", "type": "cell-based", "conditions": "RCMB0049001; Cryptococcus neoformas (RCMB 0049001); well 6.0 mm, 100 μL tested; three replicates; ketoconazole 100 μg/mL", "method": "as §1"}, "[2]": {"test_system": "Syncephalastrum racemosum", "assay": "Antifungal screening, diffusion agar technique", "type": "cell-based", "conditions": "RCMB016001; Syncephalastrum racemosum (RCMB 016001); well 6.0 mm, 100 μL tested; three replicates; ketoconazole 100 μg/mL", "method": "as §1"}, "Aspergillus fumigatus": {"test_system": "Aspergillus fumigatus", "assay": "Antifungal screening, diffusion agar technique", "type": "cell-based", "conditions": "RCMB002008; Aspergillus fumigatus (RCMB 002008); well 6.0 mm, 100 μL tested; three replicates; ketoconazole 100 μg/mL", "method": "as §1"}, "[3]": {"test_system": "A-549 cells (human lung cancer cell line)", "assay": "Cytotoxicity against A-549 cells (crystal violet colorimetric viability, 72 h)", "type": "cell-based", "conditions": "A-549 human lung cancer cell line, 72 h exposure, average of three independent experiments", "method": "Cancer is a type of malignant disease in which a group of cells appears to grow in an irregular pattern. The only way to treat this is through surgical intervention or chemotherapy, both of which have negative side effects. Although platinum-based complexes such as cis-platin have been used to treat cancer, it is not effective, so in vitro tests for complexes of manganese, cobalt, copper, chromium, and palladium were conducted against two cancer lines, respectively. A-549 and MRC-5 cells were used as test subjects for the cytotoxic activity of Schiff base and aminopyrimidyl complexes in the concentration range of […]. […] As the concentration of the complexes increased, cell viability decreased (Figure 10).\nFigure 10 (a) A-549. The dose-response curves of the cytotoxicity of compounds (1–6). Cells were exposed to different concentrations of the compounds for 72 h. Cell viability was determined by a colorimetric method. (b) MRC-5cell lines. The dose-response curves of the cytotoxicity of compounds (1–6) Cells were exposed to different concentrations of the compounds for 72 h. Cell viability was determined by a colorimetric method.\nA-549 cells (human Lung cancer cell line) were obtained from VACSERA Tissue Culture Unit.\nIt is composed of 0.5% (w/v) crystal violet and 50% methanol then made up to volume with ddH2O and filtered through a Whatmann No.1 filter paper. […]"}, "Proteus vulgaris": {"test_system": "Proteus vulgaris", "assay": "Antibacterial screening, diffusion agar technique", "type": "cell-based", "conditions": "Proteus vulgaris (ATCC 13315), Gram-negative; well 6.0 mm, 100 μL tested; three replicates; gentamycin 4 μg/mL", "method": "as §1"}, "Staphylococcus aureus": {"test_system": "Staphylococcus aureus", "assay": "Antibacterial screening, diffusion agar technique", "type": "cell-based", "conditions": "Staphylococcus aureus (ATCC 25923), Gram-positive; well 6.0 mm, 100 μL tested; three replicates; gentamycin 4 μg/mL", "method": "as §1"}, "Bacillus subtilis": {"test_system": "Bacillus subtilis", "assay": "Antibacterial screening, diffusion agar technique", "type": "cell-based", "conditions": "Bacillus subtilis (NRRL B-543), Gram-positive; well 6.0 mm, 100 μL tested; three replicates; gentamycin 4 μg/mL", "method": "as §1"}, "Escherichia coli": {"test_system": "Escherichia coli", "assay": "Antibacterial screening, diffusion agar technique", "type": "cell-based", "conditions": "Escherichia coli (ATCC 25922), Gram-negative; well 6.0 mm, 100 μL tested; three replicates; gentamycin 4 μg/mL", "method": "as §1"}}}
{"molecule": "O=C1O[C@H]([C@@H](O)CO)C(O)=C1O", "note": "[Ascorbic acid, reference compound]", "values": [{"measurement": "IC50 (antioxidant activity, DPPH radical scavenging)", "setting": "[1]", "value": "10210 ± 770", "unit": "µg/mL"}]}
{"molecule": "CC(=O)N1CCN(c2ccc(OCC3COC(Cn4ccnc4)(c4ccc(Cl)cc4Cl)O3)cc2)CC1", "note": "(stereo not shown) [Ketoconazole, reference compound]", "values": [{"measurement": "zone of inhibition at 100 µg/mL", "setting": "Candida albicans", "value": 20.4, "unit": "mm"}, {"measurement": "zone of inhibition at 100 µg/mL", "setting": "Cryptococcus neoformas", "value": 24.9, "unit": "mm"}, {"measurement": "zone of inhibition at 100 µg/mL", "setting": "[2]", "value": 15.3, "unit": "mm"}, {"measurement": "zone of inhibition at 100 µg/mL", "setting": "Aspergillus fumigatus", "value": 17.4, "unit": "mm"}]}
{"molecule": "N.N.[Cl][Pt][Cl]", "note": "[cisplatin, reference compound]", "values": [{"measurement": "IC50 Value", "setting": "[3]", "value": 7.11, "unit": "µg/mL"}]}
{"molecule": "Gentamycin [reference compound]", "values": [{"measurement": "Mean Zone of Inhibition", "setting": "Proteus vulgaris", "value": 25.20, "unit": "mm"}, {"measurement": "Mean Zone of Inhibition", "setting": "Staphylococcus aureus", "value": 24.33, "unit": "mm"}, {"measurement": "Mean Zone of Inhibition", "setting": "Bacillus subtilis", "value": 25.93, "unit": "mm"}, {"measurement": "Mean Zone of Inhibition", "setting": "Escherichia coli", "value": 29.83, "unit": "mm"}]}
